# Laboratory results taken from patent US20080261994A1, “CYCLOPROPANE COMPOUNDS AND PHARMACEUTICAL USE THEREOF” (Japan Tobacco Inc., priority 2003, published 2008).
# Read-outs that look alike come from different tables or passages of the source.
# Columns and labels:
# Type in all cases: biochemical
# aggrecanase-1 = target: T1, aggrecanase-1 (Homo sapiens, UniProt O75173); assay: Aggrecanase-1 inhibitory action (Particle Assay, GAG release from aggrecan-containing polyacrylamide particles)
# T1 sequence (O75173 213-837): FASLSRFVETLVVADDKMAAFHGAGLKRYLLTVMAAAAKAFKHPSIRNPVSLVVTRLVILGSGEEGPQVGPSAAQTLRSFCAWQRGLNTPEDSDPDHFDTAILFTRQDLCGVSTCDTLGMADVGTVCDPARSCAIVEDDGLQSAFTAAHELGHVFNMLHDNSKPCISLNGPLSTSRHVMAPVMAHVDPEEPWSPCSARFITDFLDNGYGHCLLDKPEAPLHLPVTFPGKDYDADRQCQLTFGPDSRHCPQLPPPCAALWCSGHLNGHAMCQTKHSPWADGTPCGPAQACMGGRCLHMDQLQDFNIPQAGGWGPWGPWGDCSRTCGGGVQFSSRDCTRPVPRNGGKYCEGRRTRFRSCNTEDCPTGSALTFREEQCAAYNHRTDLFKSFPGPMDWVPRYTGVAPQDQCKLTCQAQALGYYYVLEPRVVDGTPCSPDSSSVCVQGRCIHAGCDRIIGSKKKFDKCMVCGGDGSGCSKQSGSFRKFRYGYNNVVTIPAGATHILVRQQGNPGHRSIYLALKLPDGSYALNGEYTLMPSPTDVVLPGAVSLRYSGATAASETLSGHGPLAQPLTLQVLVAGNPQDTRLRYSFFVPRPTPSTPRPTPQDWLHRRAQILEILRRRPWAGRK
# Summary of the method: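 Enzyme and compound incubated with aggrecan-containing polyacrylamide particles in Tris-HCl buffer at 37° C for 15 h. Released GAG in supernatant measured with 1,9-dimethylmethylene blue at 595 nm against chondroitin sulfate standard; % inhibition from enzyme-free and inhibitor-free wells, reported as TC50 (μM).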
# Recombinant Human MMP-13 = target: T2, Recombinant Human MMP-13 (Homo sapiens, UniProt P45452); assay: MMP-13 inhibitory activity (MMP-13 specific fluorescent substrate with quencher)
# T2 construct: purchased R&D systems 511-MM
# Summary of the method: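 Recombinant human MMP-13 with test compound, reaction started with quenched fluorogenic peptide 7-MCA-Pro-CHA-Gly-NVal-His-Ala-DPA in Tris-HCl buffer, 1 h at 25 °C, stopped with acetic acid. Fluorescence at Ex 325/Em 405 nm; % inhibition versus enzyme-free and inhibitor-free wells, reported as IC50 (μM).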
# MMP-1 = target: T3, MMP-1 (Homo sapiens, UniProt P03956); assay: MMP-1 inhibitory action (Type I collagen Activity Measurement kit, FITC-labeled collagen type I)
# T3 sequence (P03956 100-469): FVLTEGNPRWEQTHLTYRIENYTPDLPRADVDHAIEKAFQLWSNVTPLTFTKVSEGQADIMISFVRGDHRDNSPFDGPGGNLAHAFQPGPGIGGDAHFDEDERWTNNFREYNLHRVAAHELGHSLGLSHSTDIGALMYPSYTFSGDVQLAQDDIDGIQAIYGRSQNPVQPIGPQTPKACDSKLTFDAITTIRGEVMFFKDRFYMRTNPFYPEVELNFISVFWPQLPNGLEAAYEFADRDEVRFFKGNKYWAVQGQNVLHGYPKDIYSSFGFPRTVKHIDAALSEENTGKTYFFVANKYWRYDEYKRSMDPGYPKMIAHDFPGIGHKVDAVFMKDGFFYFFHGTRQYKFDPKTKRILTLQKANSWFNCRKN
# [1] = aggrecanase-1 inhibitory action, read-out: IC50 AG1 (Experimental Example 1)
# [2] = Recombinant Human MMP-13, fluorescent substrate, 25° C. for 1 h, read-out: IC50 MMP13 (Experimental Example 3)
# [3] = MMP-1 inhibitory action, FITC-labeled collagen type I, 37° C. for 3 hr, read-out: IC50 MMP1 (Experimental Example 2)
# [4] = Experimental Example 1, read-out: IC50 AG1
# [5] = Experimental Example 3, read-out: IC50 MMP13
# [6] = Experimental Example 2, read-out: IC50 MMP1
SMILES,IC50 (aggrecanase-1; [1]) [µM],IC50 (Recombinant Human MMP-13; [2]) [µM],IC50 (MMP-1; [3]) [µM],IC50 (aggrecanase-1; [4]) [µM],IC50 (Recombinant Human MMP-13; [5]) [µM],IC50 (MMP-1; [6]) [µM]
O=C(OCCCc1cccc(C2CC2(NS(=O)(=O)c2ccc(-c3cc(C(F)(F)F)on3)s2)C(=O)O)c1)N1CCOCC1 (stereo not drawn) [Example 2-239],< 0.1,< 0.1,≥ 1,–,–,–
CCNC(=O)OCC1(c2ccccc2)CC1(NS(=O)(=O)c1ccc(-c2cc(C(F)(F)F)on2)s1)C(=O)O (stereo not drawn) [Example 2-321],–,–,–,< 1,< 1,≥ 1
CC(C)N1CCN(Cc2cccc([C@H]3C[C@@]3(NS(=O)(=O)c3ccc(-c4cc(C(F)(F)F)on4)s3)C(=O)O)c2)CC1 [Example 2-304],–,–,–,< 1,< 1,≥ 1
CC1(c2cccc(S(C)(=O)=O)c2)CC1(NS(=O)(=O)c1ccc(-c2cc(C(F)(F)F)on2)s1)C(=O)O (stereo not drawn) [Example 2-614],–,–,–,< 0.1,≥ 1,< 1
NC(=O)Cc1ccc([C@@H]2C[C@]2(NS(=O)(=O)c2ccc(-c3cc(C(F)(F)F)on3)s2)C(=O)O)cc1 [Example 2-292],–,–,–,< 0.1,< 0.1,< 1
O=C(Nc1cccc(C2CC2(NS(=O)(=O)c2ccc(-c3ccc(Cl)cc3)cc2)C(=O)O)c1)c1ccncc1 (stereo not drawn) [Example 1-63],< 1,< 0.1,≥ 1,–,–,–
O=C(O)C1(NS(=O)(=O)N2CCN(c3nc4ccccc4s3)CC2)CC1c1ccccc1 (stereo not drawn) [Example 2-157],≥ 10,≥ 1,≥ 10,–,–,–
Cc1cc(N2CCN(S(=O)(=O)N[C@@]3(C(=O)O)C(C)[C@@H]3c3ccccc3)CC2=O)no1 (stereo partly drawn) [Example 2-476],–,–,–,≥ 1,≥ 10,≥ 10
Cc1cc(N2CCN(S(=O)(=O)N[C@@]3(C(=O)O)C(C)[C@@H]3c3ccccc3)CC2)no1 (stereo partly drawn) [Example 2-475],–,–,–,≥ 1,≥ 1,≥ 10
CN(CCO)C(=O)OCC1(c2ccccc2)CC1(NS(=O)(=O)c1ccc(-c2cc(C(F)(F)F)on2)s1)C(=O)O (stereo not drawn) [Example 2-332],–,–,–,< 1,< 1,≥ 1
O=C(O)C1(NS(=O)(=O)c2ccc(-c3ccc(Cl)cc3)s2)CC1c1cccc(NS(=O)(=O)N2CCOCC2)c1 (stereo not drawn) [Example 2-269],–,–,–,< 0.1,< 0.1,≥ 1
O=C(Nc1cccc(C2CC2(NS(=O)(=O)c2ccc(-c3ccc(Cl)cc3)s2)C(=O)O)c1)N1CCOCC1 (stereo not drawn) [Example 2-251],< 1,< 1,≥ 10,–,–,–
O=C(O)C1(NS(=O)(=O)c2ccc(-c3ccc(Cl)cc3)cc2)CC1c1cccc(NCc2cnc[nH]2)c1 (stereo not drawn) [Example 1-90],< 1,< 0.1,≥ 1,–,–,–
C[C@]1(c2ccc(Cl)cc2)C[C@@]1(NS(=O)(=O)c1ccc(-c2cc(C(F)(F)F)on2)s1)C(=O)O [Example 2-620],–,–,–,< 0.1,< 0.1,< 1
C[C@]1(c2ccccc2)C[C@@]1(NS(=O)(=O)c1ccc(/C=C/C(F)(F)F)s1)C(=O)O [Example 2-562],–,–,–,≥ 1,≥ 1,≥ 1
C[C@]1(c2ccccc2)C[C@@]1(NS(=O)(=O)c1ccc(/C=C\C(F)(F)F)s1)C(=O)O [Example 2-563],–,–,–,≥ 1,≥ 1,≥ 1

# More lines, now with the values ahead:
IC50 (aggrecanase-1; [1]) [µM],IC50 (Recombinant Human MMP-13; [2]) [µM],IC50 (MMP-1; [3]) [µM],IC50 (aggrecanase-1; [4]) [µM],IC50 (Recombinant Human MMP-13; [5]) [µM],IC50 (MMP-1; [6]) [µM],SMILES
–,–,–,< 1,< 0.1,< 1,O=C(NO)C1(NS(=O)(=O)c2ccc(-c3ccc(Cl)cc3)s2)C2CCc3ccccc3C21 (stereo not drawn) [Example 2-364]
< 0.1,< 1,≥ 10,–,–,–,O=C(O)COc1ccccc1C1CC1(NS(=O)(=O)c1ccc(-c2ccc(Cl)cc2)s1)C(=O)O (stereo not drawn) [Example 1-139]
–,–,–,< 0.1,< 0.1,≥ 1,CC(C)C(=O)NCCCC1(c2ccccc2)CC1(NS(=O)(=O)c1ccc(-c2ccc(Cl)cc2)s1)C(=O)O (stereo not drawn) [Example 2-319]
< 0.1,< 1,≥ 10,–,–,–,CN(C)C(=O)Cc1ccccc1C1CC1(NS(=O)(=O)c1ccc(-c2ccc(Cl)cc2)s1)C(=O)O (stereo not drawn) [Example 2-204]
< 0.1,< 0.1,< 1,–,–,–,O=C(O)[C@]1(NS(=O)(=O)c2ccc(-c3cc(CF)sn3)s2)C[C@@H]1c1ccccc1 [Example 2-120]
< 1,< 1,≥ 10,–,–,–,CC(C)C1CC1(NS(=O)(=O)c1ccc(-c2ccc(Cl)cc2)s1)C(=O)O (stereo not drawn) [Example 2-59]
< 0.1,< 1,≥ 10,–,–,–,COCCN(C)C(=O)c1ccccc1C1CC1(NS(=O)(=O)c1ccc(-c2ccc(Cl)cc2)s1)C(=O)O (stereo not drawn) [Example 2-71]
–,–,–,< 0.1,< 0.1,≥ 1,O=C(O)C1(NS(=O)(=O)c2ccc(-c3ccc(Cl)cc3)s2)C2CCNc3ccccc3C21 (stereo not drawn) [Example 2-389]
≥ 1,≥ 1,≥ 10,–,–,–,Cc1nc(-c2ccc(S(=O)(=O)N[C@@]3(C(=O)O)C[C@@H]3c3ccccc3)s2)cs1 [Example 2-50]
< 0.1,< 0.1,≥ 1,–,–,–,O=C(O)C1(NS(=O)(=O)c2ccc3c(c2)oc2cc(Cl)ccc23)CC1c1ccccc1 (stereo not drawn) [Example 1-122]
–,–,–,≥ 1,≥ 1,≥ 1,COc1cc2c(cc1OC)CN(S(=O)(=O)N[C@@]1(C(=O)O)C(C)[C@@H]1c1ccccc1)CC2 (stereo partly drawn) [Example 2-528]
–,–,–,< 0.1,< 1,≥ 10,O=C(O)COCC1(c2ccccc2)CC1(NS(=O)(=O)c1ccc(-c2ccc(Cl)cc2)s1)C(=O)O (stereo not drawn) [Example 2-405]
–,–,–,≥ 1,≥ 1,≥ 1,CC1[C@H](c2ccccc2)[C@]1(NS(=O)(=O)N1CCN(CCc2ccccc2)CC1)C(=O)O (stereo partly drawn) [Example 2-531]
–,–,–,< 1,< 0.1,≥ 10,CC1[C@H](c2ccccc2)[C@]1(NS(=O)(=O)N1CCN(c2ccc(Br)cc2)CC1)C(=O)O (stereo partly drawn) [Example 2-458]
–,–,–,< 1,< 0.1,≥ 1,CC(=O)c1ccc(-c2ccc(S(=O)(=O)N[C@@]3(C(=O)O)C[C@]3(C)c3ccccc3)s2)cc1 [Example 2-573]
≥ 1,≥ 10,≥ 10,–,–,–,CC1(C)COC(c2ccc(S(=O)(=O)N[C@@]3(C(=O)O)C[C@@H]3c3ccccc3)s2)=N1 [Example 2-54]
< 0.1,< 0.1,≥ 10,–,–,–,CN(C)c1cccc([C@H]2C[C@@]2(NS(=O)(=O)c2ccc(-c3ccc(Cl)cc3)s2)C(=O)O)c1 [Example 2-176]
< 1,< 1,≥ 10,–,–,–,O=C(O)C1(NS(=O)(=O)c2ccc(-c3ccc(C(F)(F)F)cc3)s2)CC1c1ccccc1 (stereo not drawn) [Example 2-19]
–,–,–,≥ 1,≥ 1,≥ 10,CC1[C@H](c2ccccc2)[C@]1(NS(=O)(=O)c1ccc(OCc2ccc(Cl)cc2Cl)cc1)C(=O)NO (stereo partly drawn) [Example 2-325]
< 0.1,< 0.1,≥ 1,–,–,–,COCCN(C)C(=O)c1cccc(C2CC2(NS(=O)(=O)c2ccc(-c3ccc(Cl)cc3)s2)C(=O)O)c1 (stereo not drawn) [Example 2-69]
–,–,–,< 0.1,< 0.1,≥ 1,CN1CCC2C(c3ccccc31)C2(NS(=O)(=O)c1ccc(-c2ccc(Cl)cc2)s1)C(=O)O (stereo not drawn) [Example 2-430]
–,–,–,< 0.1,< 0.1,≥ 1,CC1[C@H](c2ccccc2)[C@]1(NS(=O)(=O)c1ccc(-c2ccc3nsnc3c2)s1)C(=O)O (stereo partly drawn) [Example 2-497]
–,–,–,≥ 1,< 1,≥ 10,O=C(NO)C1(NS(=O)(=O)c2ccc(-c3ccc(Cl)cc3)s2)C2CCCc3ccccc3C21 (stereo not drawn) [Example 2-391]
